In patent publication US20190309272A1, “Genetically Modified Cell Lines Including a TP53 Modification and Methods of Use” (UNIVERSITY OF SOUTH CAROLINA, priority 2018, published 2019):
Counter-ions that a name gives are not always drawn. Like-named read-outs stand apart in the source and are kept apart here. Starred links: 1 amine or outer side, 2 acyl side, 3 side chain; linkers in the order of their positions; H or OH if unused. Positions of bridges follow the written chain, without caps; N, C: chain ends. Non-standard residues stand in square brackets, D forms with d. Residues, ends and D or L forms follow the SMILES beside them. Chains are numbered I, II in the order given. Actinocin(9to1) = Cc1c2oc3c(C)ccc(C(=O)[*:1])c3nc-2c(C(=O)[*:2])c(N)c1=O; NMeV = CN[C@H](C(=O)O)C(C)C; Sar = CNCC(=O)O

Legend:
Type in all cases: cell-based, Human
MCF7 WT Parental pool = test: Drug screening, resazurin, MCF7 wild type parental pool
MCF7 TP53 KO 3.4 pool = test: Drug screening, resazurin, TP53 KO 3.4 pool
MCF7 TP53 KO 5.6 pool = test: Drug screening, resazurin, TP53 KO 5.6 pool
[1] = ten-day drug treatment, 156.25 nM to 10 μM, resazurin fluorescence

Q: For `O=P1(N(CCCl)CCCl)NCCCO1` (stereo not drawn) [Cyclophosphamide], which “MCF7 WT Parental pool (AUC)” value (MCF7 WT Parental pool) is on record?
A: 16.16

Q: What about the “TP53 KO 3.4 pool (AUC)” value (MCF7 TP53 KO 3.4 pool) of the same compound?
A: 15.2

Q: What about the “TP53 KO 5.6 pool (AUC)” value (MCF7 TP53 KO 5.6 pool) of the same compound?
A: 16.92

Q: For `Cc1c2oc3c(C)ccc(C(=O)N[C@@H]4C(=O)N[C@H](C(C)C)C(=O)N5CCC[C@H]5C(=O)N(C)CC(=O)N(C)[C@@H](C(C)C)C(=O)O[C@@H]4C)c3nc-2c(C(=O)N[C@@H]2C(=O)N[C@H](C(C)C)C(=O)N3CCC[C@H]3C(=O)N(C)CC(=O)N(C)[C@@H](C(C)C)C(=O)O[C@@H]2C)c(N)c1=O` [Dactinomycin] (I: T[dV]P[Sar][NMeV] / II: T[dV]P[Sar][NMeV]; ester I:1-I:C, II:1-II:C; linker I:N-II:N via Actinocin(9to1)), which “MCF7 WT Parental pool (AUC)” value (MCF7 WT Parental pool; [1]) is on record?
A: 2.01

Q: What about the “TP53 KO 3.4 pool (AUC)” value (MCF7 TP53 KO 3.4 pool; [1]) of the same compound?
A: 1.588

Q: What about the “TP53 KO 5.6 pool (AUC)” value (MCF7 TP53 KO 5.6 pool; [1]) of the same compound?
A: 1.65

Q: Which results are given for `Cc1nc(Nc2ncc(C(=O)Nc3c(C)cccc3Cl)s2)cc(N2CCN(CCO)CC2)n1` [Dasatinib]?
A: MCF7 WT Parental pool (AUC) (MCF7 WT Parental pool; [1]): 4.282; TP53 KO 3.4 pool (AUC) (MCF7 TP53 KO 3.4 pool; [1]): 4.014; TP53 KO 5.6 pool (AUC) (MCF7 TP53 KO 5.6 pool; [1]): 4.43

Q: `C[C@@H](CN1CC(=O)NC(=O)C1)N1CC(=O)NC(=O)C1` [Dexrazoxane] was tested. Which “MCF7 WT Parental pool (AUC)” value (MCF7 WT Parental pool; [1]) did it give?
A: 8.317

Q: And the “TP53 KO 3.4 pool (AUC)” value (MCF7 TP53 KO 3.4 pool; [1])?
A: 8.753

Q: And the “TP53 KO 5.6 pool (AUC)” value (MCF7 TP53 KO 5.6 pool; [1])?
A: 8.868

Q: For `CC(=O)O[C@@]12CO[C@@H]1C[C@H](O)[C@@]1(C)C(=O)[C@H](O)C3=C(C)[C@@H](OC(=O)[C@H](O)[C@@H](NC(=O)OC(C)(C)C)c4ccccc4)C[C@@](O)([C@@H](OC(=O)c4ccccc4)[C@H]21)C3(C)C` [Docetaxel], which “MCF7 WT Parental pool (AUC)” value (MCF7 WT Parental pool; [1]) is on record?
A: 1.432

Q: And the “TP53 KO 3.4 pool (AUC)” value (MCF7 TP53 KO 3.4 pool; [1])?
A: 1.639

Q: What about the “TP53 KO 5.6 pool (AUC)” value (MCF7 TP53 KO 5.6 pool; [1]) of the same compound?
A: 1.663

Q: What does the source list for `COc1cccc2c1C(=O)c1c(O)c3c(c(O)c1C2=O)C[C@@](O)(C(=O)CO)C[C@@H]3O[C@H]1C[C@H](N)[C@H](O)[C@H](C)O1` [Doxorubicin Hydrochloride]?
A: MCF7 WT Parental pool (AUC) (MCF7 WT Parental pool; [1]): 0.9435; TP53 KO 3.4 pool (AUC) (MCF7 TP53 KO 3.4 pool): 0.9013; TP53 KO 5.6 pool (AUC) (MCF7 TP53 KO 5.6 pool): 1.009

Q: Which “MCF7 WT Parental pool (AUC)” value (MCF7 WT Parental pool; [1]) does the source give for `CNC(=O)c1ccc(N2C(=S)N(c3ccc(C#N)c(C(F)(F)F)c3)C(=O)C2(C)C)cc1F` [Enzalutamide] here?
A: 8.931

Q: And the “TP53 KO 3.4 pool (AUC)” value (MCF7 TP53 KO 3.4 pool; [1])?
A: 8.864

Q: And the “TP53 KO 5.6 pool (AUC)” value (MCF7 TP53 KO 5.6 pool; [1])?
A: 8.634

Q: `COc1cccc2c1C(=O)c1c(O)c3c(c(O)c1C2=O)C[C@@](O)(C(=O)CO)C[C@@H]3O[C@H]1C[C@H](N)[C@@H](O)[C@H](C)O1` [Epirubicin Hydrochloride] was tested. Which “MCF7 WT Parental pool (AUC)” value (MCF7 WT Parental pool; [1]) did it give?
A: 0.8944

Q: And the “TP53 KO 3.4 pool (AUC)” value (MCF7 TP53 KO 3.4 pool)?
A: 0.9399

Q: What about the “TP53 KO 5.6 pool (AUC)” value (MCF7 TP53 KO 5.6 pool) of the same compound?
A: 1.019

Q: With `Cc1c(C(=O)Nc2ccc(N3C[C@@H](C)O[C@@H](C)C3)nc2)cccc1-c1ccc(OC(F)(F)F)cc1` [Erismodgib] as the compound, how does the “MCF7 WT Parental pool (AUC)” value (MCF7 WT Parental pool; [1]) read?
A: 7.435

Q: And the “TP53 KO 3.4 pool (AUC)” value (MCF7 TP53 KO 3.4 pool; [1])?
A: 6.922

Q: And the “TP53 KO 5.6 pool (AUC)” value (MCF7 TP53 KO 5.6 pool; [1])?
A: 7.491

Q: How did the “MCF7 WT Parental pool (AUC)” value (MCF7 WT Parental pool; [1]) turn out when `C[C@]12CC[C@@H]3c4ccc(OC(=O)N(CCCl)CCCl)cc4CC[C@H]3[C@@H]1CC[C@@H]2OP(=O)(O)O` [Estramustine Phosphate Sodium] was run?
A: 9.864

Q: And the “TP53 KO 3.4 pool (AUC)” value (MCF7 TP53 KO 3.4 pool; [1])?
A: 9.491

Q: And the “TP53 KO 5.6 pool (AUC)” value (MCF7 TP53 KO 5.6 pool; [1])?
A: 9.348

Q: For `COc1cc([C@@H]2c3cc4c(cc3[C@@H](O[C@@H]3O[C@@H]5CO[C@@H](C)O[C@H]5[C@H](O)[C@H]3O)[C@H]3COC(=O)[C@H]23)OCO4)cc(OC)c1O` [Etoposide], which “MCF7 WT Parental pool (AUC)” value (MCF7 WT Parental pool; [1]) is on record?
A: 2.93

Q: What about the “TP53 KO 3.4 pool (AUC)” value (MCF7 TP53 KO 3.4 pool; [1]) of the same compound?
A: 2.818

Q: What about the “TP53 KO 5.6 pool (AUC)” value (MCF7 TP53 KO 5.6 pool; [1]) of the same compound?
A: 3.06

Q: With `CO[C@H]1C[C@@H]2CC[C@@H](C)[C@@](O)(O2)C(=O)C(=O)N2CCCC[C@H]2C(=O)O[C@H]([C@H](C)C[C@@H]2CC[C@@H](OCCO)[C@H](OC)C2)CC(=O)[C@H](C)/C=C(\C)[C@@H](O)[C@@H](OC)C(=O)[C@H](C)C[C@H](C)/C=C/C=C/C=C/1C` [Everolimus] as the compound, how does the “MCF7 WT Parental pool (AUC)” value (MCF7 WT Parental pool; [1]) read?
A: 4.699

Q: And the “TP53 KO 3.4 pool (AUC)” value (MCF7 TP53 KO 3.4 pool; [1])?
A: 2.251

Q: And the “TP53 KO 5.6 pool (AUC)” value (MCF7 TP53 KO 5.6 pool; [1])?
A: 3.834

Q: Which “MCF7 WT Parental pool (AUC)” value (MCF7 WT Parental pool; [1]) does the source give for `O=c1[nH]c(=O)n([C@H]2C[C@H](O)[C@@H](CO)O2)cc1F` [Floxuridine] here?
A: 2.391

Q: What about the “TP53 KO 3.4 pool (AUC)” value (MCF7 TP53 KO 3.4 pool; [1]) of the same compound?
A: 1.85

Q: And the “TP53 KO 5.6 pool (AUC)” value (MCF7 TP53 KO 5.6 pool; [1])?
A: 1.997

Q: Which results are given for `Nc1nc(F)nc2c1ncn2[C@@H]1O[C@H](COP(=O)(O)O)[C@@H](O)[C@@H]1O` [FludarabinePhosphate]?
A: MCF7 WT Parental pool (AUC) (MCF7 WT Parental pool; [1]): 8.551; TP53 KO 3.4 pool (AUC) (MCF7 TP53 KO 3.4 pool; [1]): 8.135; TP53 KO 5.6 pool (AUC) (MCF7 TP53 KO 5.6 pool; [1]): 7.936

Q: For `C[C@]12CC[C@@H]3c4ccc(O)cc4C[C@@H](CCCCCCCCC[S+]([O-])CCCC(F)(F)C(F)(F)F)[C@H]3[C@@H]1CC[C@@H]2O` (stereo partly drawn) [Fulvestrant], which “MCF7 WT Parental pool (AUC)” value (MCF7 WT Parental pool; [1]) is on record?
A: 4.6

Q: And the “TP53 KO 3.4 pool (AUC)” value (MCF7 TP53 KO 3.4 pool; [1])?
A: 3.797

Q: What about the “TP53 KO 5.6 pool (AUC)” value (MCF7 TP53 KO 5.6 pool; [1]) of the same compound?
A: 4.145

Q: For `COc1cc2ncnc(Nc3ccc(F)c(Cl)c3)c2cc1OCCCN1CCOCC1` [Gefintinib], which “MCF7 WT Parental pool (AUC)” value (MCF7 WT Parental pool; [1]) is on record?
A: 8.974

Q: What about the “TP53 KO 3.4 pool (AUC)” value (MCF7 TP53 KO 3.4 pool; [1]) of the same compound?
A: 7.676

Q: What about the “TP53 KO 5.6 pool (AUC)” value (MCF7 TP53 KO 5.6 pool; [1]) of the same compound?
A: 8.242

Q: What does the source list for `Nc1ccn([C@@H]2O[C@H](CO)[C@@H](O)C2(F)F)c(=O)n1` [Gemcitabine Hydrochloride]?
A: MCF7 WT Parental pool (AUC) (MCF7 WT Parental pool; [1]): 2.888; TP53 KO 3.4 pool (AUC) (MCF7 TP53 KO 3.4 pool; [1]): 1.464; TP53 KO 5.6 pool (AUC) (MCF7 TP53 KO 5.6 pool; [1]): 1.827

Q: What does the source list for `NC(=O)NO` [Hydroxyurea]?
A: MCF7 WT Parental pool (AUC) (MCF7 WT Parental pool; [1]): 9.246; TP53 KO 3.4 pool (AUC) (MCF7 TP53 KO 3.4 pool; [1]): 8.069; TP53 KO 5.6 pool (AUC) (MCF7 TP53 KO 5.6 pool; [1]): 8.455

Q: `C=CC(=O)N1CCC[C@@H](n2nc(-c3ccc(Oc4ccccc4)cc3)c3c(N)ncnc32)C1` [Ibrutinib] was tested. Which “MCF7 WT Parental pool (AUC)” value (MCF7 WT Parental pool; [1]) did it give?
A: 6.35

Q: And the “TP53 KO 3.4 pool (AUC)” value (MCF7 TP53 KO 3.4 pool; [1])?
A: 5.166

Q: What about the “TP53 KO 5.6 pool (AUC)” value (MCF7 TP53 KO 5.6 pool; [1]) of the same compound?
A: 5.711

Q: `CC[C@H](Nc1ncnc2[nH]cnc12)c1nc2cccc(F)c2c(=O)n1-c1ccccc1` [Idelalisib] was tested. Which “MCF7 WT Parental pool (AUC)” value (MCF7 WT Parental pool; [1]) did it give?
A: 7.566

Q: What about the “TP53 KO 3.4 pool (AUC)” value (MCF7 TP53 KO 3.4 pool; [1]) of the same compound?
A: 7.039

Q: And the “TP53 KO 5.6 pool (AUC)” value (MCF7 TP53 KO 5.6 pool; [1])?
A: 7.03
